Like-named read-outs stand apart in the source and are kept apart here.
How the values were obtained:
trypsin = biological target: T1, trypsin (Bos taurus, UniProt P00760); experiment: Determination of trypsin-inhibitory activity; type: biochemical, bovine; settings: read-out: inhibition rate, trypsin
T1 construct: purchased Sigma; host or cells: bovine pancreas
T1 sequence (P00760 24-246): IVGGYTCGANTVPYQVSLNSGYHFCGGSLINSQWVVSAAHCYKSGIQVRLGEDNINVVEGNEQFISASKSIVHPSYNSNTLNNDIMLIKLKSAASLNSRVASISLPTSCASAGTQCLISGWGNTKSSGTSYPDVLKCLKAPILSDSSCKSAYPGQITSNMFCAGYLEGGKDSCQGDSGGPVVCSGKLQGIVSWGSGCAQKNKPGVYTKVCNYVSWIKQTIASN
Experimental: (§1) The methods for the measurement of inhibitory activities against various proteases and the method for calculating the inhibition rate are as follows.
Determination of trypsin-inhibitory activity
In the present invention, a 50 mM Tris-HCl buffer (pH 8.0) was employed as a buffer for measurement.
To a mixture of the above-mentioned buffer (850 μl), a solution of the compounds of the present invention in the same buffer (50 μl) and a 0.02 μM solution of trypsin (derived from bovine pancreas, Sigma) in the same buffer (50 μl) was added a 200 μM solution of 7-(prolyl-phenylaranyl-arginyl)-4-methylcoumarinamide (Peptide Institute, Inc.) in the same buffer (50 μl),and the mixture was incubated at 30° C. for 1 hour. The reaction mixture was immersed in ice (0° C.) to terminate the reaction, and the fluorescence (b1) was determined 1 hour later (excitation at 370 nm and emission at 440 nm). Concurrently, there were conducted the experiment wherein, in the system above, the trypsin solution was substituted for a buffer alone, and the experiment wherein the solution of the compounds of the present invention was substituted for a buffer above. Each fluorescence (b2 and b3) was determined respectively.
(§2) Using the fluorescence x1, x2 and x3 measured in the abovementioned manner, the inhibitory rate against various proteases was calculated by the following formula where x stands for b, c, d, e or f: [formula]

cathepsin B = biological target: T2, cathepsin B (Bos taurus, UniProt P07688); experiment: Determination of cathepsin B-inhibitory activity; type: biochemical, bovine; settings: read-out: inhibition rate, cathepsin B
T2 construct: purchased Sigma; host or cells: bovine spleen
Experimental: as §1
Determination of cathepsin B-inhibitory activity
Similarly, by following the procedure mentioned above, but employing a 100 mM sodium phosphate buffer (pH 6.0; containing 1.33 mM EDTA Na2) as a buffer for measurement, a 0.02 μM solution of cathepsin B (derived from bovine spleen, Sigma) in the same buffer as an enzyme solution and a 200 μM solution of 7-(N-benzyloxycarbonyl-phenylaranyl-arginyl)-4-methylcoumarinamide (Peptide Institute, Inc.) in the same buffer as a substrate solution, each fluorescence (f1, f2 and f3) was determined, respectively.
as §2

leucine aminopeptidase = experiment: Determination of leucine aminopeptidase-inhibitory activity; type: biochemical, swine; design: unit not given here
Experimental: as §1
Determination of leucine aminopeptidase-inhibitory activity
Similarly, by following the procedure mentioned above, but employing a 50 mM Tris-HCl buffer (pH 8.0) as a buffer for measurement, a […] solution of leucine aminopeptidase (derived from swine kidney, Sigma) in the same buffer as an enzyme solution and a 200 μM solution of 7-leucyl-4-methyl-coumarinamide (Peptide Institute, Inc.) in the same buffer as a substrate solution, each fluorescence (d1, d2 and d3) was determined, respectively.
as §2

prolyl endopeptidase = biological target: T3, prolyl endopeptidase (Rattus norvegicus, UniProt O70196); experiment: Prolyl endopeptidase-inhibitory activity; type: biochemical; settings: for inhibition at 0.1 µM / inhibition at 1 µM: read-out: inhibition rate, prolyl endopeptidase
T3 construct: prolyl endopeptidase extracted from rat brain; from tissue; host or cells: rat brain
T3 sequence (O70196 whole entry): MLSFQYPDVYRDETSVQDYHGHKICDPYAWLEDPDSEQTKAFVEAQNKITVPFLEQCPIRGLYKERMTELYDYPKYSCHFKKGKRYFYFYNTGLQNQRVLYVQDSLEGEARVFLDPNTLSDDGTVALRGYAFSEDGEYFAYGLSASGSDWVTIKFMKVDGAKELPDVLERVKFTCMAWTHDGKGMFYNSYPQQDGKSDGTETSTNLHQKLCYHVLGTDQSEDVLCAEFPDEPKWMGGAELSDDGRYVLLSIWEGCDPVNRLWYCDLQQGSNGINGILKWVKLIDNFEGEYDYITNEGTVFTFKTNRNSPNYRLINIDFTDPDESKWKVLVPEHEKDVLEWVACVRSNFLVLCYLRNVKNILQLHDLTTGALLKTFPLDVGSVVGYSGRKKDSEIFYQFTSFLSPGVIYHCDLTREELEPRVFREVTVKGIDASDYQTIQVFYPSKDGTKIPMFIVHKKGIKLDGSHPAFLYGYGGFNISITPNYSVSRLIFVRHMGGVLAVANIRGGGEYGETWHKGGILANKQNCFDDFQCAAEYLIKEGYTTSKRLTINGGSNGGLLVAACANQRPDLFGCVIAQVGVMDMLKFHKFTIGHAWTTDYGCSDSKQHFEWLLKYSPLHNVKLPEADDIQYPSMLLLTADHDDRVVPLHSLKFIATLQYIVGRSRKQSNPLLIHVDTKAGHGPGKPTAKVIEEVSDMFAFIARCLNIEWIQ
Experimental: Prolyl endopeptidase-inhibitory activity
A mixture of a 0.1M potassium sodium phosphate buffer (pH 7.0) (2675 μl), a solution of the compounds of the present invention in a 0.1M potassium sodium phosphate buffer (pH 7.0) (100 μl) and a solution of prolyl endopeptidase extracted from rat brain in a 25 mM sodium phosphate buffer (100 μl) [123 unit/1, pH 6.8, containing 1 mM dithiothreitol and 0.5 mM EDTA, prepared by the method described in J. Neurochem., 35, 527 (1980)]was preincubated at 30° C. for 30 minutes. Thereto was added a 0.2 mM solution of 7-(N-succinyl-glycyl-prolyl)-4-methylcoumarinamide (Peptide Institute, INC.) in a 0.1M potassium sodium phosphate buffer (pH 7.0) (125 μl), and the mixture was incubated at 30° C. for 1 hour. The reaction mixture was immersed in ice (0° C.) to terminate the reaction, and the fluorescence (a1) was determined ten minutes later (excitation at 370 nm and emission at 440 nm). Concurrently, there were conducted the experiment wherein, in the above system, the prolyl endopeptidase solution was substituted for a 25 mM sodium phosphate buffer (pH 6.8, containing 1 mM dithiothreitol and 0.5 mM EDTA) and the experiment wherein the solution of the compounds of the present invention was substituted for a 0.1M potassium sodium phosphate buffer (pH 7.0). Each fluorescence (a2 and a3) was determined respectively [See Tanpakushitsu Kakusan Koso, 29, 127 (1984)]. The prolyl endopeptidase-inhibition rate was calculated by the following formula, and IC50, a concentration of a compound producing 50% inhibition, was estimated by semilogarithmic graph paper. [formula] […]

elastase = biological target: T4, elastase (Sus scrofa, UniProt P00772); experiment: Determination of elastase-inhibitory activity; type: biochemical, swine; settings: read-out: inhibition rate, elastase
T4 construct: purchased Sigma; host or cells: swine pancreas
T4 sequence (P00772 27-266): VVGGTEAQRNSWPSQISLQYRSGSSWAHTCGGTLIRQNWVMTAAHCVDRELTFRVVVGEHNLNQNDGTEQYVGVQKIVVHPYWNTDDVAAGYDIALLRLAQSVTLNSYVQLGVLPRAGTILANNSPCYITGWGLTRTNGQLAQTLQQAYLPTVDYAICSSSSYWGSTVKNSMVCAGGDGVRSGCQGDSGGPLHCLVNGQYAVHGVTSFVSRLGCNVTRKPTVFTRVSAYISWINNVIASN
Experimental: as §1
Determination of elastase-inhibitory activity
Similarly, by following the procedure mentioned above, but employing a 1 mM Tris-HCl buffer (pH 8.5) as a buffer for measurement, a 0.2 μM solution of elastase (derived from swine pancreas, Sigma) in the same buffer as an enzyme solution and a 200 μM solution of 7-(N-succinyl-aranyl-prolyl-aranyl)-4-methylcoumarinamide (Peptide Institute, Inc.) in the same buffer as a substrate solution, each fluorescence (e1, e2 and e3) was determined, respectively.
as §2

chymotrypsin = biological target: T5, chymotrypsin (Bos taurus, UniProt P00766); experiment: Determination of chymotrypsin-inhibitory activity; type: biochemical, bovine; settings: read-out: inhibition rate, chymotrypsin
T5 construct: purchased Sigma; host or cells: bovine pancreas
Experimental: as §1
Determination of chymotrypsin-inhibitory activity
Similarly, by following the procedure mentioned above, but employing a 50 mM Tris-HCl buffer (pH 8.0) as a buffer for measurement, a 0.2 μM solution of chymotrypsin (derived from bovine pancreas, Sigma) in the same buffer as an enzyme solution and a […] solution of 7-(N-succinyl-leucyl-leucyl-valyl-tyrosyl)-4-methylcoumarinamide (Peptide Institute, Inc.) in the same buffer as a substrate solution, each fluorescence (c1, c2 and c3) was determined, respectively.
as §2

[1] = prolyl endopeptidase extracted from rat brain, pH 7.0, 30° C., read-out: IC50

## O=C(COc1ccccc1)[C@@H]1CCCN1C(=O)[C@@H]1CCCN1C(=O)NCc1ccc(Cl)cc1 [Compound 30, (2S)-1-[N-(4-Chlorobenzylaminocarbonyl)-L-prolyl]-2-(phenoxyacetyl)pyrrolidine]
trypsin
  inhibition at 0.1 µM: 0%
Cathepsin B
  inhibition at 0.1 µM: 0%
Leucine aminopeptidase; 0.1 μM
  inhibition rate, leucine aminopeptidase: 0
Prolyl endopeptidase
  inhibition at 0.1 µM: 99%
Prolyl endopeptidase; [1]
  IC50: 0.6 nM
elastase
  inhibition at 0.1 µM: 0%
chymotrypsin
  inhibition at 0.1 µM: 0%

## COc1ccc([S@@+]([O-])CC(=O)[C@@H]2CCCN2C(=O)[C@@H]2CCCN2C(=O)NCc2ccccc2)cc1 [Compound 23, (2S)-1-(N-Benzylaminocarbonyl-L-prolyl)-2-{[(S)-4-methoxyphenylsulfinyl]acetyl}pyrrolidine]
trypsin
  inhibition at 1 µM: 0%
Cathepsin B
  inhibition at 1 µM: 0%
Leucine aminopeptidase; 1 μM
  inhibition rate, leucine aminopeptidase: 0
Prolyl endopeptidase
  inhibition at 1 µM: 99%
Prolyl endopeptidase; [1]
  IC50: 15 nM
elastase
  inhibition at 1 µM: 0%
chymotrypsin
  inhibition at 1 µM: 0%

## COc1ccc(OCC(=O)[C@@H]2CCCN2C(=O)[C@@H]2CCCN2C(=O)OCC23CC4CC(CC(C4)C2)C3)cc1 [Compound 50, (2S)-1-{N-[(1-Adamantyl)methoxycarbonyl]-L-prolyl}-2-(4-methoxyphenoxyacetyl)pyrrolidine]
trypsin
  inhibition at 1 µM: 0%
Cathepsin B
  inhibition at 1 µM: 0%
Leucine aminopeptidase; 1 μM
  inhibition rate, leucine aminopeptidase: 0
Prolyl endopeptidase
  inhibition at 1 µM: 97%
Prolyl endopeptidase; [1]
  IC50: 500 nM
elastase
  inhibition at 1 µM: 0%
chymotrypsin
  inhibition at 1 µM: 0%

## COc1ccc([S+]([O-])CC(=O)[C@@H]2CCCN2C(=O)[C@@H]2CCCN2C(=O)OCc2ccccc2)cc1 (stereo partly drawn) [Compound 6, (2S)-1-(N-Benzyloxycarbonyl-L-prolyl)-2-[(4-methoxyphenylsulfinyl)acetyl]pyrrolidine]
trypsin
  inhibition at 0.1 µM: 0%
Cathepsin B
  inhibition at 0.1 µM: 20%
Leucine aminopeptidase; 0.1 μM
  inhibition rate, leucine aminopeptidase: 0
Prolyl endopeptidase
  inhibition at 0.1 µM: 98%
Prolyl endopeptidase; [1]
  IC50: 0.65 nM
elastase
  inhibition at 0.1 µM: 0%
chymotrypsin
  inhibition at 0.1 µM: 0%

## O=C(CS(=O)(=O)c1ccccc1)[C@@H]1CCCN1C(=O)[C@@H]1CCCN1C(=O)OCc1ccccc1 [Compound 3, (2S)-1-(N-Benzyloxycarbonyl-L-prolyl)-2-[(phenylsulfonyl)-acetyl]pyrrolidine]
trypsin
  inhibition at 0.1 µM: 0%
Cathepsin B
  inhibition at 0.1 µM: 0%
Leucine aminopeptidase; 0.1 μM
  inhibition rate, leucine aminopeptidase: 0
Prolyl endopeptidase
  inhibition at 0.1 µM: 91%
Prolyl endopeptidase; [1]
  IC50: 12 nM
elastase
  inhibition at 0.1 µM: 0%
chymotrypsin
  inhibition at 0.1 µM: 0%

## O=C(C[S@@+]([O-])c1ccccc1)[C@@H]1CCCN1C(=O)[C@@H]1CCCN1C(=O)OCc1ccccc1 [Compound 10, (2S)-1-(N-Benzyloxycarbonyl-L-prolyl)-2-{[(R)-phenylsulfinyl]acetyl}pyrrolidine]
trypsin
  inhibition at 0.1 µM: 0%
Cathepsin B
  inhibition at 0.1 µM: 0%
Leucine aminopeptidase; 0.1 μM
  inhibition rate, leucine aminopeptidase: 0
Prolyl endopeptidase
  inhibition at 0.1 µM: 97%
Prolyl endopeptidase; [1]
  IC50: 80 nM
elastase
  inhibition at 0.1 µM: 0%
chymotrypsin
  inhibition at 0.1 µM: 0%

## O=C(CSc1ccccc1)[C@@H]1CCCN1C(=O)[C@@H]1CCCN1C(=O)OCc1ccccc1 [Compound 1, (2S)-1-(N-Benzyloxycarbonyl-L-prolyl)-2-[(Phenylthio)acetyl]-pyrrolidine]
trypsin
  inhibition at 0.1 µM: 0%
Cathepsin B
  inhibition at 0.1 µM: 0%
Leucine aminopeptidase; 0.1 μM
  inhibition rate, leucine aminopeptidase: 0
Prolyl endopeptidase
  inhibition at 0.1 µM: 90%
Prolyl endopeptidase; [1]
  IC50: 0.3 nM
elastase
  inhibition at 0.1 µM: 0%
chymotrypsin
  inhibition at 0.1 µM: 20%

## COc1ccc(CNC(=O)N2CCC[C@H]2C(=O)N2CCC[C@H]2C(=O)C[S@+]([O-])c2ccc(OC)cc2)cc1 [Compound 24, (2S)-1-[N-(4-Methoxybenzylaminocarbonyl)-L-prolyl]-2-{[(S)-4-methoxyphenylsulfinyl]acetyl}pyrrolidine]
trypsin
  inhibition at 0.1 µM: 0%
Cathepsin B
  inhibition at 0.1 µM: 0%
Leucine aminopeptidase; 0.1 μM
  inhibition rate, leucine aminopeptidase: 0
Prolyl endopeptidase
  inhibition at 0.1 µM: 99%
Prolyl endopeptidase; [1]
  IC50: 0.5 nM
elastase
  inhibition at 0.1 µM: 0%
chymotrypsin
  inhibition at 0.1 µM: 0%

## CCOC(=O)CN(Cc1ccccc1)C(=O)N1CCC[C@H]1C(=O)N1CCC[C@H]1C(=O)COc1ccccc1 [Compound 52, (2S)-1-{N-[N-Benzyl-N-(ethoxycarbonylmethyl)aminocarbonyl]-L-prolyl}-2-(phenoxyacetyl)pyrrolidine]
trypsin
  inhibition at 0.1 µM: 0%
Cathepsin B
  inhibition at 0.1 µM: 0%
Leucine aminopeptidase; 0.1 μM
  inhibition rate, leucine aminopeptidase: 0
Prolyl endopeptidase
  inhibition at 0.1 µM: 97%
Prolyl endopeptidase; [1]
  IC50: 2 nM
elastase
  inhibition at 0.1 µM: 0%
chymotrypsin
  inhibition at 0.1 µM: 0%

## O=C(COc1ccc(Cl)cc1)[C@@H]1CCCN1C(=O)[C@@H]1CCCN1C(=O)NCc1ccc(Cl)cc1 [Compound 28, (2S)-1-[N-(4-Chlorobenzylaminocarbonyl)-L-prolyl]-2-(4-chlorophenoxyacetyl)pyrrolidine]
trypsin
  inhibition at 0.1 µM: 0%
Cathepsin B
  inhibition at 0.1 µM: 0%
Leucine aminopeptidase; 0.1 μM
  inhibition rate, leucine aminopeptidase: 0
Prolyl endopeptidase
  inhibition at 0.1 µM: 97%
Prolyl endopeptidase; [1]
  IC50: 15 nM
elastase
  inhibition at 0.1 µM: 0%
chymotrypsin
  inhibition at 0.1 µM: 0%

## COc1ccc(OCC(=O)[C@@H]2CCCN2C(=O)[C@@H]2CCCN2C(=O)CNc2ccccc2)cc1 [Compound 48, (2S)-2-(4-Methoxyphenoxyacetyl)-1-[N-(N-phenylglycyl)-L-prolyl]pyrrolidine]
trypsin
  inhibition at 1 µM: 0%
Cathepsin B
  inhibition at 1 µM: 0%
Leucine aminopeptidase; 1 μM
  inhibition rate, leucine aminopeptidase: 0
Prolyl endopeptidase
  inhibition at 1 µM: 90%
Prolyl endopeptidase; [1]
  IC50: 60 nM
elastase
  inhibition at 1 µM: 0%
chymotrypsin
  inhibition at 1 µM: 0%

## O=C(COc1ccc2c(c1)OCO2)[C@@H]1CCCN1C(=O)[C@@H]1CCCN1C(=O)NCc1ccccc1 [Compound 33, (2S)-1-[N-(Benzylaminocarbonyl)-L-prolyl]-2-{[(3,4-methylenedioxy)phenoxy]acetyl} pyrrolidine]
trypsin
  inhibition at 0.1 µM: 0%
Cathepsin B
  inhibition at 0.1 µM: 0%
Prolyl endopeptidase
  IC50: 1 nM
  inhibition at 0.1 µM: 96%
elastase
  inhibition at 0.1 µM: 0%
chymotrypsin
  inhibition at 0.1 µM: 0%
